Values quoted from earlier work, collected in patent publication US10822301B2, “3-carbon substituted 4-aminocyclopent-1-ene-1-carboxylic acid compounds as inhibitors of gamma-aminobutyric acid (GABA) aminotransferase” (Northwestern University, priority 2018, dated 2020).

Legend:
[1] = test system: cocaine addiction in humans; settings: 9-week double-blind trial
epilepsy patients = settings: long-term administration, share of epilepsy patients

Compound: C=CC(N)CCC(=O)O (centres unmarked) [vigabatrin]
- patients achieving abstinence [1]: up to 28%
- permanent vision loss (damage of the retinal nerve fiber layer) (epilepsy patients): 25-40%
